Experimental data: patent US20170265474A1, “BICYCLIC COMPOUNDS AS PEST CONTROL AGENTS” (BAYER CROPSCIENCE AKTIENGESELLSCHAFT, priority 2014, published 2017)
Read-outs that look alike come from different tables or passages of the source.

Columns and labels:
[1] = log P by HPLC on reversed-phase (C18) columns, OECD Guideline 117; format: physicochemical; conditions: reversed-phase (C18) HPLC column
Description: The log P values were determined in accordance with OECD Guideline 117 (EC Directive 92/69/EEC) by HPLC (high-performance liquid chromatography) using reversed-phase (RP) columns (C18), by the following methods: [a] The LC-MS determination in the acidic range is carried out at pH 2.7 with 0.1% aqueous formic acid and acetonitrile (contains 0.1% formic acid) as eluents; linear gradient from 10% acetonitrile to 95% acetonitrile. [b] LC-MS determination in the neutral range is effected at pH 7.8 with 0.001 molar aqueous ammonium hydrogencarbonate solution and acetonitrile as eluents; linear gradient from 10% acetonitrile to 95% acetonitrile. Calibration is carried out using unbranched alkan-2-ones (having 3 to 16 carbon atoms) with known log P values (log P values determined on the basis of the retention times by linear interpolation between two successive alkanones).

[2] = system: Myzus persicae; assay: Myzus persicae spray test (Chinese cabbage leaf discs); format: in vivo, green peach aphid (Myzus persicae); conditions: foliar, 144 h, application rate 500 g/ha, after 6 days, 100% = all aphids killed, read-out: efficacy
Description: Myzus persicae—Spray Test • Solvent: 78 parts by weight of acetone • 1.5 parts by weight of dimethylformamide • Emulsifier: alkylaryl polyglycol ether To produce a suitable preparation of active compound, 1 part by weight of active compound is dissolved using the specified parts by weight of solvent and made up with water containing an emulsifier concentration of 1000 ppm until the desired concentration is attained. To produce further test concentrations, the formulation is diluted with emulsifier-containing water. Discs of Chinese cabbage leaves (Brassica pekinensis) infested by all stages of the green peach aphid (Myzus persicae) are sprayed with an active compound formulation of the desired concentration. After 6 days, the efficacy in % is determined. 100% means that all the aphids have been killed; 0% means that no aphids have been killed.

[3] = system: Myzus persicae; assay: Myzus persicae spray test (bell pepper plants); format: in vivo, green peach aphid (Myzus persicae); conditions: after 6 days
Description: Myzus persicae—Spray Test • Solvent: 7 parts by weight of dimethylformamide • Emulsifier: alkylaryl polyglycol ether To produce a suitable preparation of active compound, 1 part by weight of active compound is dissolved using the specified parts by weight of solvent and made up with water containing an emulsifier concentration of 1000 ppm until the desired concentration is attained. To produce further test concentrations, the formulation is diluted with emulsifier-containing water. If the addition of ammonium salts or/and penetrants is required, these are each added in a concentration of 1000 ppm to the formulation solution. Bell pepper plants (Capsicum annuum) severely infested with the green peach aphid (Myzus persicae) are treated by spraying with the active compound formulation in the desired concentration. After 6 days, the kill in % is determined. 100% means that all of the aphids have been killed; 0% means that none of the aphids have been killed.

[4] = system: Aphis gossypii; assay: Aphis gossypii spray test (cotton plants); format: in vivo, cotton aphid (Aphis gossypii); conditions: application rate 4 ppm, after 6 days
Description: Aphis gossypii—Spray Test • Solvent: 7 parts by weight of dimethylformamide • Emulsifier: alkylaryl polyglycol ether To produce a suitable preparation of active compound, 1 part by weight of active compound is dissolved using the specified parts by weight of solvent and made up with water containing an emulsifier concentration of 1000 ppm until the desired concentration is attained. To produce further test concentrations, the formulation is diluted with emulsifier-containing water. If the addition of ammonium salts or/and penetrants is required, these are each added in a concentration of 1000 ppm to the formulation solution. Cotton plants (Gossypium hirsutum) which are heavily infested by the cotton aphid (Aphis gossypii) are sprayed with an active compound formulation of the desired concentration. After 6 days, the kill in % is determined. 100% means that all the aphids have been killed; 0% means that no aphids have been killed.

[5] = system: Tetranychus urticae; assay: Tetranychus urticae spray test, OP-resistant (bean leaf discs); format: in vivo, greenhouse red spider mite (Tetranychus urticae); conditions: application rate 500 g/ha, after 6 days, 100% = all spider mites killed
Description: Tetranychus urticae—Spray Test, OP-Resistant • Solvent: 78.0 parts by weight of acetone • 1.5 parts by weight of dimethylformamide • Emulsifier: alkylaryl polyglycol ether
To produce a suitable preparation of active compound, 1 part by weight of active compound is dissolved using the specified parts by weight of solvent and made up with water containing an emulsifier concentration of 1000 ppm until the desired concentration is attained. To produce further test concentrations, the formulation is diluted with emulsifier-containing water.
Discs of bean leaves (Phaseolus vulgaris) infested with all stages of the greenhouse red spider mite (Tetranychus urticae) are sprayed with an active compound formulation of the desired concentration.
After 6 days, the efficacy in % is determined. 100% means that all the spider mites have been killed; 0% means that no spider mites have been killed.

[6] = acidic range, pH 2.7, 0.1% aqueous formic acid / acetonitrile, read-out: logP[a]
[7] = neutral range, pH 7.8, 0.001 molar aqueous ammonium hydrogencarbonate / acetonitrile, read-out: logP[b]

Row | chromatographic logP [1, 6] | chromatographic logP [1, 7] | SMILES | pest or weed control at 500 g/ha [2] | also measured
1 | 3.79 | 3.83 | FC(F)(F)c1ccn(-c2ccc3nc(-c4cccnc4)sc3n2)n1 [Example 39] |  | 
2 | 1.53 |  | CCN(C)C(=O)c1ccc2nc(-c3cccnc3)sc2n1 [Example 33] |  | 
3 | 2.61 |  | O=C(Nc1ccc2nc(-c3cccnc3)sc2n1)c1cccc([S+]([O-])C(F)(F)F)c1 (stereo not shown) [Example 37] |  | 
4 | 1.35 |  | CNC(=O)c1ccc2nc(-c3cccnc3)sc2n1 [Example 32] |  | 
5 | 2.75 | 2.77 | Cc1ccc(Nc2ccc3nc(-c4cccnc4)sc3n2)cc1[S+]([O-])CC(F)(F)F (stereo not shown) [Example 42] |  | 
6 | 2.1 |  | O=C(Nc1cccc(S(=O)(=O)C(F)(F)F)c1)c1ccc2nc(-c3cccnc3)sc2n1 [Example 34] |  | 
7 | 1.18 |  | CS(=O)(=O)CCC(=O)Nc1ccc2nc(-c3cccnc3)sc2n1 [Example 38] |  | 
8 | 2.03 |  | CSCCNC(=O)c1ccc2nc(-c3cccnc3)sc2n1 [Example 35] | 90% | 
9 | 3.09 |  | O=C(Nc1cccc([S+]([O-])C(F)(F)F)c1)c1ccc2nc(-c3cccnc3)sc2n1 (stereo not shown) [Example 36] |  | 
10 | 2.26 | 2.33 | Clc1ccc2nc(-c3cccnc3)sc2n1 [Example 40] |  | 

Further lines, the compound ahead of its results:

Row | SMILES | chromatographic logP [1, 6] | chromatographic logP [1, 7] | pest or weed control at 500 g/ha [2] | also measured
11 | Cc1ccc(N(C)c2ccc3nc(-c4cccnc4)sc3n2)cc1SCC(F)(F)F [Example 12, N-methyl-N-[4-methyl-3-(2,2,2-trifluoroethylsulfanyl)phenyl]-2-(3-pyridyl)thiazolo[5,4-b]pyridine-5-amine] | 4.81 | 4.78 | 90% | 
12 | FC(F)(F)c1cnn(-c2ccc3nc(-c4cccnc4)sc3n2)c1 [Example 13, 2-(3-Pyridyl)-5-[4-(trifluoromethyl)pyrazol-1-yl]thiazolo[5,4-b]pyridine] | 3.82 | 3.72 |  | 
13 | c1cncc(-c2nc3ccc(N4CCCC4)nc3s2)c1 [Example 6, 2-(3-Pyridyl)-5-pyrrolidin-1-ylthiazolo[5,4-b]pyridine] | 2.53 | 2.97 |  | efficacy (kill) ([3]; application rate 100 ppm): 95%
14 | Cc1ccc(-c2ccc3nc(-c4cccnc4)sc3n2)cc1[S+]([O-])CC(F)(F)F (stereo not shown) [Example 4, 5-[4-Methyl-3-(2,2,2-trifluoroethylsulfinyl)phenyl]-2-(3-pyridyl)thiazolo[5,4-b]pyridine] | 2.99 | 2.98 | 90% | efficacy (kill) ([3]; application rate 4 ppm): 95%
15 | c1cncc(-c2nc3ccc(N4CCOCC4)nc3s2)c1 [Example 11, 4-[2-(3-Pyridyl)thiazolo[5,4-b]pyridin-5-yl]morpholine] | 2.1 | 1.95 | 90% | 
16 | Cc1ccc(-c2ccc3nc(-c4cccnc4)sc3n2)cc1SCC(F)(F)F [Example 2, 5-[4-Methyl-3-(2,2,2-trifluoroethylsulfanyl)phenyl]-2-(3-pyridyl)thiazolo[5,4-b]pyridine] | 4.67 | 4.64 | 90% | efficacy (kill) ([3]; application rate 4 ppm): 100%
17 | CN(C(=O)c1cccc([S+]([O-])C(F)(F)F)c1)c1ccc2nc(-c3cccnc3)sc2n1 (stereo not shown) [Example 29] | 2.23 |  | 100% | 
18 | CN(C(=O)c1cccc(S(=O)(=O)C(F)(F)F)c1)c1ccc2nc(-c3cccnc3)sc2n1 [Example 31] | 1.54 |  | 90% | 
19 | CN(C(=O)CCS(C)(=O)=O)c1ccc2nc(-c3cccnc3)sc2n1 [Example 30, N-Methyl-3-(methylsulfonyl)-N-[2-(pyridin-3-yl)[1,3]thiazolo[5,4-b]pyridin-5-yl]propanamide] | 1.25 |  | 90% | 
20 | CSCCC(=O)N(C)c1ccc2nc(-c3cccnc3)sc2n1 [Example 22] | 1.98 |  | 90% | 
21 | c1cnc(-c2ccc3nc(-c4cccnc4)sc3n2)nc1 [Example 7, 2-(3-Pyridyl)-5-pyrimidin-2-ylthiazolo[5,4-b]pyridine] | 1.43 | 1.5 |  | efficacy (kill) [4]: 80%
22 | CNc1ccc2nc(-c3cccnc3)sc2n1 [Example 15] | 1.34 |  |  | 
23 | c1ccc(-c2ccc3nc(-c4cccnc4)sc3n2)nc1 [Example 8, 5-(2-Pyridyl)-2-(3-pyridyl)thiazolo[5,4-b]pyridine] | 2.12 | 2.68 |  | efficacy (kill) ([3]; application rate 4 ppm): 80%
24 | Cc1ccc(Nc2ccc3nc(-c4cccnc4)sc3n2)cc1SCC(F)(F)F [Example 9, N-[4-Methyl-3-(2,2,2-trifluoroethylsulfanyl)phenyl]-2-(3-pyridyl)thiazolo[5,4-b]pyridine-5-amine] | 3.99 | 4.06 |  | efficacy [5]: 90%
25 | Cc1cc(F)c(-c2ccc3nc(-c4cccnc4)sc3n2)cc1[S+]([O-])CC(F)(F)F (stereo not shown) [Example 3, 5-[2-Fluoro-4-methyl-5-(2,2,2-trifluoroethylsulfinyl)phenyl]-2-(3-pyridyl)thiazolo[5,4-b]pyridine] | 3.02 | 3.09 |  | efficacy (kill) ([3]; application rate 4 ppm): 97%
26 | FC(F)(F)c1ccc2nc(-c3cccnc3)sc2n1 [Example 10, 2-(3-Pyridyl)-5-(trifluoromethyl)thiazolo[5,4-b]pyridine] | 2.65 | 2.69 |  | efficacy [5]: 90%
27 | Cc1cc(F)c(-c2ccc3nc(-c4cccnc4)sc3n2)cc1SCC(F)(F)F [Example 1, 5-[2-Fluoro-4-methyl-5-(2,2,2-trifluoroethylsulfanyl)phenyl]-2-(3-pyridyl)thiazol [5,4-b]pyridine] | 4.81 | 4.75 | 100% | efficacy (kill) ([3]; application rate 4 ppm): 100%
